# Measured values reported in PubChem BioAssay (NCI).
#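 Each compound was tested at five concentrations against cells in 96-well plates for 48 hours. Abbreviation: GI50, concentration required for 50% inhibition of growth. TGI denotes the concentration required for complete inhibition of growth.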
# Legend:
# Assay in all cases: growth of human tumour cells (NCI), 48 h
# [1] = tested on: A498 renal
# [2] = tested on: CAKI-1 renal
# [3] = tested on: EKVX NSCLC
# [4] = tested on: IGROV1 ovarian
# [5] = tested on: K-562 leukemia
# [6] = tested on: MOLT-4 leukemia
# [7] = tested on: SF-539 CNS
# [8] = tested on: SK-OV-3 ovarian
# [9] = tested on: SW-620 colon
# [10] = tested on: UACC-257 melanoma
Compound,GI50 [1],TGI [1],GI50 [2],TGI [2],GI50 [3],TGI [3],GI50 [4],TGI [4],GI50 [5],TGI [5],GI50 [6],TGI [6],GI50 [7],TGI [7],GI50 [8],TGI [8],GI50 [9],TGI [9],GI50 [10],TGI [10]
COc1c(OC[C@H](O)CN2CCOCC2)ccc2c3n(c(=NC(=O)c4cccnc4C)nc12)CCN3,0.167 µM,1.85 µM,0.859 µM,> 50 µM,1.05 µM,> 50 µM,0.06 µM,0.343 µM,> 50 µM,> 50 µM,0.305 µM,> 50 µM,0.543 µM,9.91 µM,0.115 µM,2.27 µM,49.4 µM,> 50 µM,1.11 µM,> 50 µM
CO/N=C(\COc1ccc2c(c1)oc(=O)c1cc(OC)ccc12)c1ccc(OC)cc1,> 100 µM,> 100 µM,> 100 µM,> 100 µM,> 100 µM,> 100 µM,> 100 µM,> 100 µM,> 100 µM,> 100 µM,> 100 µM,> 100 µM,> 100 µM,> 100 µM,> 100 µM,> 100 µM,> 100 µM,> 100 µM,> 100 µM,> 100 µM
OCC1OC(c2nc(C3=NCCCN3)cs2)C(O)C1O (centres undefined),–,> 100 µM,–,> 100 µM,–,> 100 µM,–,> 100 µM,–,> 100 µM,–,> 100 µM,–,> 100 µM,–,> 100 µM,–,> 100 µM,–,> 100 µM
O=C(/C=C/c1cccc2ccccc12)c1ccccc1Cl,–,29.5 µM,–,27.9 µM,–,28.6 µM,–,31 µM,–,> 100 µM,–,8.82 µM,–,31.9 µM,–,43.1 µM,–,17.6 µM,–,31.3 µM
CCOC(=O)Nc1ccc(C)c(NC(=O)OCC)c1,–,> 100 µM,–,> 100 µM,–,> 100 µM,–,> 100 µM,–,> 100 µM,–,> 100 µM,–,> 100 µM,–,> 100 µM,–,> 100 µM,–,> 100 µM
Cc1nn(-c2ccc(Cl)cc2)c2nc3c(nc12)C(=O)c1ccccc1-3,31.7 µM,> 100 µM,> 100 µM,> 100 µM,> 100 µM,> 100 µM,> 100 µM,> 100 µM,> 100 µM,> 100 µM,> 100 µM,> 100 µM,> 100 µM,> 100 µM,47.3 µM,> 100 µM,> 100 µM,> 100 µM,> 100 µM,> 100 µM
O=C(N[C@@H](c1ccc(Cl)c(Cl)c1)C1CNC1)c1ccc2cnccc2c1,0.157 µM,1.36 µM,0.068 µM,2.27 µM,0.288 µM,16.9 µM,0.0324 µM,4.69 µM,3.2 µM,> 40.3 µM,0.106 µM,6.18 µM,0.0408 µM,0.798 µM,0.239 µM,6.86 µM,0.41 µM,12.3 µM,0.49 µM,4.84 µM
CC(C)Oc1ccc2cc(-c3nn(CC4CCNCC4)c4ncnc(N)c34)ccc2c1,14.2 µM,28.2 µM,10.9 µM,22.9 µM,13.6 µM,26.9 µM,11.1 µM,24.8 µM,2.04 µM,6.29 µM,1.97 µM,5.95 µM,12.3 µM,24.7 µM,13.8 µM,27.9 µM,13.2 µM,26.8 µM,1.95 µM,3.98 µM
CCC(C)COC(=O)c1ccc(N=Cc2ccc(C=Nc3ccc(C(=O)OCC(C)CC)cc3)cc2)cc1 (centres undefined),–,> 100 µM,–,> 100 µM,–,> 100 µM,–,> 100 µM,–,> 100 µM,–,> 100 µM,–,> 100 µM,–,> 100 µM,–,> 100 µM,–,> 100 µM
Clc1ccc2[nH]cc(-c3nnnn3-c3ccccc3)c2c1,8.39 µM,36.8 µM,–,1.16 µM,28.3 µM,> 100 µM,29.4 µM,> 77 µM,8.58 µM,> 67.3 µM,11 µM,> 53 µM,16.5 µM,39 µM,> 44.3 µM,> 75.3 µM,14.9 µM,> 100 µM,24.9 µM,71 µM
